Experimental data published in the supplement of paper PMC11451515.

System: NOMO1
Assay: cell viability relative to DMSO control; higher = less cytotoxic
Conditions: 48 h
In short: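 NOMO1 or SEM cells were plated at 500 cells/well and P12-Ichikawa cells at 1000 cells/well in 1536-well plates (5 μl), after each leukemia line had been adapted for at least four passages in each medium. Pin dosing delivered library compounds in DMSO at 11 threefold concentrations, 47 μM to 0.79 nM. CellTiter-Glo One luminescence was read after 48 h at 37°C. Viability is reported as a per-plate percentage of DMSO wells, with cell-free wells as background.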

[1] = HPLM + 10% dialyzed FBS, 0.000781 µM
[2] = HPLM + 10% dialyzed FBS, 0.00234 µM
[3] = HPLM + 10% dialyzed FBS, 0.00702 µM
[4] = HPLM + 10% dialyzed FBS, 0.0211 µM
[5] = HPLM + 10% dialyzed FBS, 0.0632 µM
[6] = HPLM + 10% dialyzed FBS, 0.19 µM
[7] = HPLM + 10% dialyzed FBS, 0.569 µM
[8] = HPLM + 10% dialyzed FBS, 1.71 µM
[9] = HPLM + 10% dialyzed FBS, 5.12 µM
[10] = HPLM + 10% dialyzed FBS, 15.4 µM
[11] = HPLM + 10% dialyzed FBS, 46.1 µM
[12] = RPMI 5 mM glucose + 10% FBS, 0.000781 µM
[13] = RPMI 5 mM glucose + 10% FBS, 0.00234 µM
[14] = RPMI 5 mM glucose + 10% FBS, 0.00702 µM
[15] = RPMI 5 mM glucose + 10% FBS, 0.0211 µM
[16] = RPMI 5 mM glucose + 10% FBS, 0.0632 µM
[17] = RPMI 5 mM glucose + 10% FBS, 0.19 µM
[18] = RPMI 5 mM glucose + 10% FBS, 0.569 µM
[19] = RPMI 5 mM glucose + 10% FBS, 1.71 µM
[20] = RPMI 5 mM glucose + 10% FBS, 5.12 µM
[21] = RPMI 5 mM glucose + 10% FBS, 15.4 µM
[22] = RPMI 5 mM glucose + 10% FBS, 46.1 µM
[23] = RPMI 5 mM glucose + 10% dialyzed FBS, 0.000781 µM
[24] = RPMI 5 mM glucose + 10% dialyzed FBS, 0.00234 µM
[25] = RPMI 5 mM glucose + 10% dialyzed FBS, 0.00702 µM
[26] = RPMI 5 mM glucose + 10% dialyzed FBS, 0.0211 µM
[27] = RPMI 5 mM glucose + 10% dialyzed FBS, 0.0632 µM
[28] = RPMI 5 mM glucose + 10% dialyzed FBS, 0.19 µM
[29] = RPMI 5 mM glucose + 10% dialyzed FBS, 0.569 µM
[30] = RPMI 5 mM glucose + 10% dialyzed FBS, 1.71 µM
[31] = RPMI 5 mM glucose + 10% dialyzed FBS, 5.12 µM
[32] = RPMI 5 mM glucose + 10% dialyzed FBS, 15.4 µM
[33] = RPMI 5 mM glucose + 10% dialyzed FBS, 46.1 µM

Compound	cell viability [1]	cell viability [2]	cell viability [3]	cell viability [4]	cell viability [5]	cell viability [6]	cell viability [7]	cell viability [8]	cell viability [9]	cell viability [10]	cell viability [11]	cell viability [12]	cell viability [13]	cell viability [14]	cell viability [15]	cell viability [16]	cell viability [17]	cell viability [18]	cell viability [19]	cell viability [20]	cell viability [21]	cell viability [22]	cell viability [23]	cell viability [24]	cell viability [25]	cell viability [26]	cell viability [27]	cell viability [28]	cell viability [29]	cell viability [30]	cell viability [31]	cell viability [32]	cell viability [33]
C#C[C@]1(O)CC[C@H]2[C@@H]3CCc4cc(OC)ccc4[C@H]3CC[C@@]21C	108%	123%	114%	118%	117%	114%	107%	105%	109%	102%	95.4%	117%	124%	108%	110%	123%	123%	117%	108%	106%	104%	93.5%	115%	107%	106%	124%	120%	108%	103%	109%	104%	103%	107%
CC(NCc1ccc2c(c1)[nH]/c(=N\C(=O)c1ccc(-c3cn[nH]c3)s1)n2CC(C)(C)O)C(C)(C)C (configuration not stated)	110%	109%	113%	112%	106%	103%	74.4%	54.1%	9.83%	5.43%	4.17%	110%	104%	109%	98.7%	102%	103%	98.7%	87.2%	10.8%	5.4%	3.08%	116%	100%	110%	99.5%	101%	101%	92.9%	69.7%	8.51%	4.24%	2.97%
CC(C)C[C@H](NC(=O)[C@H](Cc1ccccc1)NC(=O)c1cnccn1)B(O)O	99.7%	106%	108%	119%	21.6%	3.62%	4.25%	2.64%	2.22%	1.08%	0.274%	83.7%	91.4%	99%	96.6%	21.6%	6.12%	2.91%	1.66%	1.61%	1.02%	-0.312%	94.5%	101%	98.4%	116%	17%	5%	3.79%	3%	1.75%	1.72%	-0.0281%
OC(COC1=C2C(=O)\C=C(/OC2=CC=C1)C([O-])=O)COC3=C4C(=O)\C=C(/OC4=CC=C3)C([O-])=O	95.5%	86.8%	93.7%	94.2%	94.8%	80.8%	96.3%	86.1%	86.3%	94.5%	93%	72.6%	74.5%	74.7%	76.4%	80.4%	74.5%	74.8%	83.3%	71%	80.3%	84.8%	75.4%	82%	73.3%	76.4%	86%	72.7%	89.1%	88.6%	87.9%	86%	90.4%
